# From paper PMC10611619, “[^99mTc]Tc-PentixaTec: development, extensive pre-clinical evaluation, and first human experience” (European Journal of Nuclear Medicine and Molecular Imaging, 2023)
# Where a SMILES comes first, the peptide text is derived from it. Side-chain parts run from the residue outwards. [ ]: non-standard residue; d: D form. The star is where a group is joined. 2Nal = N[C@@H](Cc1ccc2ccccc2c1)C(=O)O; dNMeOrn = CN[C@H](CCCN)C(=O)O; 4Abz = Nc1ccc(C(=O)O)cc1; X1 = NCCNCC(CNCCN)C(=O)*; dDap = NC[C@@H](N)C(=O)O
# Assay: Patient radiation dosimetry (OLINDA/EXM, RADAR/MIRD)
# Assay type: in vivo, human
# Settings: for Absorbed organ dose Adrenals / Absorbed organ dose Brain / Absorbed organ dose Breast / Absorbed organ dose Gallbladder wall / Absorbed organ dose Heart wall / Absorbed organ dose Kidneys / Absorbed organ dose LLI wall / Absorbed organ dose Liver / Absorbed organ dose Lungs / Absorbed organ dose Muscle / Absorbed organ dose Osteogenic cells / Absorbed organ dose Ovaries / Absorbed organ dose Pancreas / Absorbed organ dose Red marrow / Absorbed organ dose Skin / Absorbed organ dose Small intestine / Absorbed organ dose Spleen / Absorbed organ dose Stomach wall / Absorbed organ dose Testes / Absorbed organ dose Thymus / Absorbed organ dose Thyroid / Absorbed organ dose Total body / Absorbed organ dose ULI wall / Absorbed organ dose Urinary bladder wall / Absorbed organ dose Uterus: per 1 MBq
# Method: Radiation dosimetry calculations were performed using the RADAR (Radiation Dose Assessment Resource) method as implemented in the OLINDA/EXM software and according to the recommendations of the Medical Internal Radiation Dose (MIRD) committee. The individual absorbed organ doses (ODs) and the effective doses (EDs) were corrected to consider the current tissue weighting factors of ICRP 103 [38]. For a detailed description of image analysis for dosimetry, please refer to the supplementary materials section.
# The Xeleris^TM Dosimetry Toolkit (GE Healthcare, Milwaukee, USA) was used to perform full organ segmentation by an experienced user. This was performed manually on CT images of organs (kidneys, liver, spleen, heart, lungs, lumbar vertebrae 2-4) to define the regions and volumes of interest (VOIs) for gamma camera scans and SPECT analysis. Quantification of the activity in the VOIs was carried out as converting counts in the VOIs by a calibration factor to the average activity per milliliter and per organ.
# The VOIs were transferred from SPECT/CT to the planar images. Additional ROIs for the whole body and a background region adjacent to the head were drawn on the planar images.
# The VOIs were used to determine the masses of the individual organs. For the lungs, a density of 0.288 g/mL was used. For all organs not covered by any VOI, the uptake was summed as the contribution from the remainder of the body in the dose calculation.
# The time-integrated activity coefficients of all contoured organs were determined using the hybrid planar/SPECT method. Thus, the shape of the time-activity curves were estimated based on the planar images using the NUKFIT software and then scaled to activity values using the SPECT/CT. The accumulated activity in the bone marrow was calculated using the activity in the lumbar vertebrae 2-4 with the assumption that these contain 6.7% of the red bone marrow.
# Radiation dosimetry calculations were performed using the RADAR (Radiation Dose Assessment Resource) method as implemented in the OLINDA/EXM software and according to the recommendations of the Medical Internal Radiation Dose (MIRD) committee. The OLINDA/EXM application (version 1.0) was used to calculate the individual absorbed organ doses (ODs) and the effective doses (EDs) by using the time-integrated activity coefficients and the individual patients’ organ masses. A mass of 1500 g for the red bone marrow as assumed for all patients. The EDs were afterwards corrected to consider the current tissue weighting factors of ICRP 103 [16]. The absorbed OD and ED were evaluated for each patient and then averaged across all the patients.
smiles,measurement,setting,value
"C[C@@H](NC(=O)[C@@H](CCCNC(=N)N)NC(=O)[C@@H](CN)NC(=O)C(CNCCN)CNCCN)C(=O)Nc1ccc(C(=O)NCCC[C@@H]2C(=O)N[C@@H](CCCNC(=N)N)C(=O)N[C@@H](Cc3ccc4ccccc4c3)C(=O)NCC(=O)N[C@H](Cc3ccc(O)cc3)C(=O)N2C)cc1 [[^99mTc]Tc-N4-L6-CPCR4, [^99mTc]Tc-N4-dap-r-a-Abz-CPCR4, metal not drawn] (cyclo([dY][dNMeOrn]([4Abz-dA-dR-dDap-X1])R[2Nal]G))","absorbed dose bone marrow, median",four patients,9.40E − 03 mGy/MBq
same,"absorbed dose bone marrow, range",four patients,6.2E − 03–13.50E − 03 mGy/MBq
same,"absorbed dose kidneys, median",four patients,1.23E − 02 mGy/MBq
same,"absorbed dose kidneys, range",four patients,0.94 E − 02–1.37E − 02 mGy/MBq
same,"absorbed dose spleen, median",four patients,1.95E − 02 mGy/MBq
same,"absorbed dose spleen, range",four patients,1.61E − 02–2.38E − 02 mGy/MBq
same,"effective dose per unit of administered activity, median",four patients,5.3E − 03 mSv/MBq
same,"effective dose per unit of administered activity, range",four patients,4.3E − 03–6.7E − 03 mSv/MBq
same,Absorbed organ dose Adrenals,Median,0.0065 mGy
same,Absorbed organ dose Brain,Median,0.0030 mGy
same,Absorbed organ dose Breast,Median,0.0025 mGy
same,Absorbed organ dose Gallbladder wall,Median,0.0060 mGy
same,Absorbed organ dose Heart wall,Median,0.0044 mGy
same,Absorbed organ dose Kidneys,Median,0.0123 mGy
same,Absorbed organ dose LLI wall,Median,0.0048 mGy
same,Absorbed organ dose Liver,Median,0.0077 mGy
same,Absorbed organ dose Lungs,Median,0.0063 mGy
same,Absorbed organ dose Muscle,Median,0.0035 mGy
same,Absorbed organ dose Osteogenic cells,Median,0.0136 mGy
same,Absorbed organ dose Ovaries,Median,0.0050 mGy
same,Absorbed organ dose Pancreas,Median,0.0070 mGy
same,Absorbed organ dose Red marrow,Median,0.0094 mGy
same,Absorbed organ dose Skin,Median,0.0023 mGy
same,Absorbed organ dose Small intestine,Median,0.0049 mGy
same,Absorbed organ dose Spleen,Median,0.0195 mGy
same,Absorbed organ dose Stomach wall,Median,0.0051 mGy
same,Absorbed organ dose Testes,Median,0.0026 mGy
same,Absorbed organ dose Thymus,Median,0.0036 mGy
same,Absorbed organ dose Thyroid,Median,0.0033 mGy
same,Absorbed organ dose Total body,Median,0.0037 mGy
same,Absorbed organ dose ULI wall,Median,0.0049 mGy
same,Absorbed organ dose Urinary bladder wall,Median,0.0041 mGy
same,Absorbed organ dose Uterus,Median,0.0047 mGy
same,Absorbed organ dose Adrenals,Patient 1,0.0053 mGy
same,Absorbed organ dose Brain,Patient 1,0.0023 mGy
same,Absorbed organ dose Breast,Patient 1,0.0021 mGy
same,Absorbed organ dose Gallbladder wall,Patient 1,0.0051 mGy
same,Absorbed organ dose Heart wall,Patient 1,0.0040 mGy
same,Absorbed organ dose Kidneys,Patient 1,0.0137 mGy
same,Absorbed organ dose LLI wall,Patient 1,0.0037 mGy
same,Absorbed organ dose Liver,Patient 1,0.0066 mGy
same,Absorbed organ dose Lungs,Patient 1,0.0051 mGy
same,Absorbed organ dose Muscle,Patient 1,0.0028 mGy
same,Absorbed organ dose Osteogenic cells,Patient 1,0.0099 mGy
same,Absorbed organ dose Ovaries,Patient 1,0.0040 mGy
same,Absorbed organ dose Pancreas,Patient 1,0.0055 mGy
same,Absorbed organ dose Red marrow,Patient 1,0.0065 mGy
same,Absorbed organ dose Skin,Patient 1,0.0018 mGy
same,Absorbed organ dose Small intestine,Patient 1,0.0041 mGy
same,Absorbed organ dose Spleen,Patient 1,0.0161 mGy
same,Absorbed organ dose Stomach wall,Patient 1,0.0040 mGy
same,Absorbed organ dose Testes,Patient 1,0.0023 mGy
same,Absorbed organ dose Thymus,Patient 1,0.0030 mGy
same,Absorbed organ dose Thyroid,Patient 1,0.0028 mGy
same,Absorbed organ dose Total body,Patient 1,0.0028 mGy
same,Absorbed organ dose ULI wall,Patient 1,0.0040 mGy
same,Absorbed organ dose Urinary bladder wall,Patient 1,0.0033 mGy
same,Absorbed organ dose Uterus,Patient 1,0.0038 mGy
same,Absorbed organ dose Adrenals,Patient 2,0.0078 mGy
same,Absorbed organ dose Brain,Patient 2,0.0032 mGy
same,Absorbed organ dose Breast,Patient 2,0.0028 mGy
same,Absorbed organ dose Gallbladder wall,Patient 2,0.0068 mGy
same,Absorbed organ dose Heart wall,Patient 2,0.0049 mGy
same,Absorbed organ dose Kidneys,Patient 2,0.0117 mGy
same,Absorbed organ dose LLI wall,Patient 2,0.0053 mGy
same,Absorbed organ dose Liver,Patient 2,0.0087 mGy
same,Absorbed organ dose Lungs,Patient 2,0.0079 mGy
same,Absorbed organ dose Muscle,Patient 2,0.0038 mGy
same,Absorbed organ dose Osteogenic cells,Patient 2,0.0162 mGy
same,Absorbed organ dose Ovaries,Patient 2,0.0054 mGy
same,Absorbed organ dose Pancreas,Patient 2,0.0083 mGy
same,Absorbed organ dose Red marrow,Patient 2,0.0135 mGy
same,Absorbed organ dose Skin,Patient 2,0.0024 mGy
same,Absorbed organ dose Small intestine,Patient 2,0.0053 mGy
same,Absorbed organ dose Spleen,Patient 2,0.0238 mGy
same,Absorbed organ dose Stomach wall,Patient 2,0.0057 mGy
same,Absorbed organ dose Thymus,Patient 2,0.0040 mGy
same,Absorbed organ dose Thyroid,Patient 2,0.0032 mGy
same,Absorbed organ dose Total body,Patient 2,0.0039 mGy
same,Absorbed organ dose ULI wall,Patient 2,0.0055 mGy
same,Absorbed organ dose Urinary bladder wall,Patient 2,0.0043 mGy
same,Absorbed organ dose Uterus,Patient 2,0.0049 mGy
same,Absorbed organ dose Adrenals,Patient 3,0.0083 mGy
same,Absorbed organ dose Brain,Patient 3,0.0039 mGy
same,Absorbed organ dose Breast,Patient 3,0.0032 mGy
same,Absorbed organ dose Gallbladder wall,Patient 3,0.0073 mGy
same,Absorbed organ dose Heart wall,Patient 3,0.0054 mGy
same,Absorbed organ dose Kidneys,Patient 3,0.0128 mGy
same,Absorbed organ dose LLI wall,Patient 3,0.0062 mGy
same,Absorbed organ dose Liver,Patient 3,0.0089 mGy
same,Absorbed organ dose Lungs,Patient 3,0.0075 mGy
same,Absorbed organ dose Muscle,Patient 3,0.0044 mGy
same,Absorbed organ dose Osteogenic cells,Patient 3,0.0184 mGy
same,Absorbed organ dose Ovaries,Patient 3,0.0064 mGy
same,Absorbed organ dose Pancreas,Patient 3,0.0092 mGy
same,Absorbed organ dose Red marrow,Patient 3,0.0123 mGy
same,Absorbed organ dose Skin,Patient 3,0.0027 mGy
same,Absorbed organ dose Small intestine,Patient 3,0.0062 mGy
same,Absorbed organ dose Spleen,Patient 3,0.0202 mGy
same,Absorbed organ dose Stomach wall,Patient 3,0.0066 mGy
same,Absorbed organ dose Thymus,Patient 3,0.0045 mGy
same,Absorbed organ dose Thyroid,Patient 3,0.0039 mGy
same,Absorbed organ dose Total body,Patient 3,0.0052 mGy
same,Absorbed organ dose ULI wall,Patient 3,0.0063 mGy
same,Absorbed organ dose Urinary bladder wall,Patient 3,0.0053 mGy
same,Absorbed organ dose Uterus,Patient 3,0.0059 mGy
same,Absorbed organ dose Adrenals,Patient 4,0.00524 mGy
same,Absorbed organ dose Brain,Patient 4,0.00278 mGy
same,Absorbed organ dose Breast,Patient 4,0.00227 mGy
same,Absorbed organ dose Gallbladder wall,Patient 4,0.00502 mGy
same,Absorbed organ dose Heart wall,Patient 4,0.00317 mGy
same,Absorbed organ dose Kidneys,Patient 4,0.00936 mGy
same,Absorbed organ dose LLI wall,Patient 4,0.00428 mGy
same,Absorbed organ dose Liver,Patient 4,0.00636 mGy
same,Absorbed organ dose Lungs,Patient 4,0.00337 mGy
same,Absorbed organ dose Muscle,Patient 4,0.00318 mGy
same,Absorbed organ dose Osteogenic cells,Patient 4,0.011 mGy
same,Absorbed organ dose Ovaries,Patient 4,0.00451 mGy
same,Absorbed organ dose Pancreas,Patient 4,0.00571 mGy
same,Absorbed organ dose Red marrow,Patient 4,0.00617 mGy
same,Absorbed organ dose Skin,Patient 4,0.00209 mGy
same,Absorbed organ dose Small intestine,Patient 4,0.00455 mGy
same,Absorbed organ dose Spleen,Patient 4,0.0188 mGy
same,Absorbed organ dose Stomach wall,Patient 4,0.00441 mGy
same,Absorbed organ dose Testes,Patient 4,0.00282 mGy
same,Absorbed organ dose Thymus,Patient 4,0.00324 mGy
same,Absorbed organ dose Thyroid,Patient 4,0.00329 mGy
same,Absorbed organ dose Total body,Patient 4,0.00351 mGy
same,Absorbed organ dose ULI wall,Patient 4,0.00441 mGy
same,Absorbed organ dose Urinary bladder wall,Patient 4,0.00385 mGy
same,Absorbed organ dose Uterus,Patient 4,0.0044 mGy
same,Absorbed organ dose Adrenals,Range Max,0.0083 mGy
same,Absorbed organ dose Brain,Range Max,0.0039 mGy
same,Absorbed organ dose Breast,Range Max,0.0032 mGy
same,Absorbed organ dose Gallbladder wall,Range Max,0.0073 mGy
same,Absorbed organ dose Heart wall,Range Max,0.0054 mGy
same,Absorbed organ dose Kidneys,Range Max,0.0137 mGy
same,Absorbed organ dose LLI wall,Range Max,0.0062 mGy
same,Absorbed organ dose Liver,Range Max,0.0089 mGy
same,Absorbed organ dose Lungs,Range Max,0.0079 mGy
same,Absorbed organ dose Muscle,Range Max,0.0044 mGy
same,Absorbed organ dose Osteogenic cells,Range Max,0.0184 mGy
same,Absorbed organ dose Ovaries,Range Max,0.0064 mGy
same,Absorbed organ dose Pancreas,Range Max,0.0092 mGy
same,Absorbed organ dose Red marrow,Range Max,0.0135 mGy
same,Absorbed organ dose Skin,Range Max,0.0027 mGy
same,Absorbed organ dose Small intestine,Range Max,0.0062 mGy
same,Absorbed organ dose Spleen,Range Max,0.0238 mGy
same,Absorbed organ dose Stomach wall,Range Max,0.0066 mGy
same,Absorbed organ dose Testes,Range Max,0.0028 mGy
same,Absorbed organ dose Thymus,Range Max,0.0045 mGy
same,Absorbed organ dose Thyroid,Range Max,0.0039 mGy
same,Absorbed organ dose Total body,Range Max,0.0052 mGy
same,Absorbed organ dose ULI wall,Range Max,0.0063 mGy
same,Absorbed organ dose Urinary bladder wall,Range Max,0.0053 mGy
same,Absorbed organ dose Uterus,Range Max,0.0059 mGy
same,Absorbed organ dose Adrenals,Range Min,0.0052 mGy
same,Absorbed organ dose Brain,Range Min,0.0023 mGy
same,Absorbed organ dose Breast,Range Min,0.0021 mGy
same,Absorbed organ dose Gallbladder wall,Range Min,0.0050 mGy
same,Absorbed organ dose Heart wall,Range Min,0.0032 mGy
same,Absorbed organ dose Kidneys,Range Min,0.0094 mGy
same,Absorbed organ dose LLI wall,Range Min,0.0037 mGy
same,Absorbed organ dose Liver,Range Min,0.0064 mGy
same,Absorbed organ dose Lungs,Range Min,0.0034 mGy
same,Absorbed organ dose Muscle,Range Min,0.0028 mGy
same,Absorbed organ dose Osteogenic cells,Range Min,0.0099 mGy
same,Absorbed organ dose Ovaries,Range Min,0.0040 mGy
same,Absorbed organ dose Pancreas,Range Min,0.0055 mGy
same,Absorbed organ dose Red marrow,Range Min,0.0062 mGy
same,Absorbed organ dose Skin,Range Min,0.0018 mGy
same,Absorbed organ dose Small intestine,Range Min,0.0041 mGy
same,Absorbed organ dose Spleen,Range Min,0.0161 mGy
same,Absorbed organ dose Stomach wall,Range Min,0.0040 mGy
same,Absorbed organ dose Testes,Range Min,0.0023 mGy
same,Absorbed organ dose Thymus,Range Min,0.0030 mGy
same,Absorbed organ dose Thyroid,Range Min,0.0028 mGy
same,Absorbed organ dose Total body,Range Min,0.0028 mGy
same,Absorbed organ dose ULI wall,Range Min,0.0040 mGy
same,Absorbed organ dose Urinary bladder wall,Range Min,0.0033 mGy
same,Absorbed organ dose Uterus,Range Min,0.0038 mGy
same,"effective dose, range",per 500 MBq,2.1–3.4 mSv
same,"effective dose, median",standard activity of 500 MBq,2.7 mSv
